Measured values as given in ChEMBL document CHEMBL4823314, “Design, synthesis and biological evaluation of novel acridine and quinoline derivatives as tubulin polymerization inhibitors with anticancer activities” (Bioorg Med Chem, 2021).
Calls of active or inactive are those of the source. No cut-off for these calls is given here.

Legend:
B16-F10 [1] = test: Antiproliferative activity against mouse B16-F10 cells assessed as reduction in cell viability measured after 48 hrs by MTT assay; format: functional, cell-based; settings: B16-F10, 48 h
HepG2 [2] = test: Antiproliferative activity against human HepG2 cells assessed as reduction in cell viability measured after 48 hrs by MTT assay; format: functional, cell-based; settings: HepG2, 48 h
B16-F10 [3] = test: Antiproliferative activity against mouse B16-F10 cells assessed as reduction in cell viability incubated for 48 hrs by MTT assay; format: functional, cell-based; settings: dose 2.5-10 µM
HepG2 [4] = test: Antiproliferative activity against human HepG2 cells assessed as reduction in cell viability incubated for 48 hrs by MTT assay; format: functional, cell-based; settings: dose 2.5-10 µM
HeLa [5] = test: Antiproliferative activity against human HeLa cells assessed as reduction in cell viability incubated for 48 hrs by MTT assay; format: functional, cell-based; settings: dose 2.5-10 µM
MCF7 [6] = test: Antiproliferative activity against human MCF7 cells assessed as reduction in cell viability incubated for 48 hrs by MTT assay; format: functional, cell-based; settings: dose 2.5-10 µM
B16-F10 [7] = test: Antiproliferative activity against mouse B16-F10 cells assessed as reduction in cell viability at 0.5 uM by MTT assay; format: functional, cell-based; settings: time 12-72 hrs, TDE = time-dependent effect
HepG2 [8] = test: Antiproliferative activity against human HepG2 cells assessed as reduction in cell viability at 0.5 uM by MTT assay; format: functional, cell-based; settings: time 12-72 hrs, TDE = time-dependent effect
HeLa [9] = test: Antiproliferative activity against human HeLa cells assessed as reduction in cell viability at 0.5 uM by MTT assay; format: functional, cell-based; settings: time 12-72 hrs, TDE = time-dependent effect
MCF7 [10] = test: Antiproliferative activity against human MCF7 cells assessed as reduction in cell viability at 0.5 uM by MTT assay; format: functional, cell-based; settings: time 12-72 hrs, TDE = time-dependent effect
HepG2 [11] = test: Inhibition of colony formation in human HepG2 cells incubated for 24 hrs by crystal violet staining based analysis; format: functional, cell-based; settings: dose 0.1-1 µM
[12] = Inhibition of pig brain tubulin polymerization by spectrophotometric method; format: tissue-based, Sus scrofa
Sus scrofa = organism: Sus scrofa; test: Inhibition of pig brain tubulin polymerization measured upto 20 mins by spectrophotometric method; settings: dose 3-100 µM, time min <=20
HepG2 [13] = test: Antimigratory activity in human HepG2 cells assessed as inhibition of cell migration incubated for 24 hrs by scratch wound healing assay; format: functional, cell-based; settings: dose 0.1-1 µM
HepG2 [14] = test: Cell cycle arrest in human HepG2 cells assessed as accumulation at G1 phase at 0.5 uM measured after 48 hrs by propidium iodide staining based flow cytometry analysis (reference value: 56.11%); format: functional
HepG2 [15] = test: Cell cycle arrest in human HepG2 cells assessed as accumulation at G1 phase at 1 uM measured after 48 hrs by propidium iodide staining based flow cytometry analysis (reference value: 56.11%); format: functional
HepG2 [16] = test: Cell cycle arrest in human HepG2 cells assessed as accumulation at G1 phase at 5 uM measured after 48 hrs by propidium iodide staining based flow cytometry analysis (reference value: 56.11%); format: functional
HepG2 [17] = test: Cell cycle arrest in human HepG2 cells assessed as accumulation at S phase at 0.5 uM measured after 48 hrs by propidium iodide staining based flow cytometry analysis (reference value: 34.13%); format: functional
HepG2 [18] = test: Cell cycle arrest in human HepG2 cells assessed as accumulation at S phase at 1 uM measured after 48 hrs by propidium iodide staining based flow cytometry analysis (reference value: 34.13%); format: functional
HepG2 [19] = test: Cell cycle arrest in human HepG2 cells assessed as accumulation at S phase at 5 uM measured after 48 hrs by propidium iodide staining based flow cytometry analysis (reference value: 34.13%); format: functional
HepG2 [20] = test: Cell cycle arrest in human HepG2 cells assessed as accumulation at G2/M phase at 0.5 uM measured after 48 hrs by propidium iodide staining based flow cytometry analysis (reference value: 9.27%); format: functional
HepG2 [21] = test: Cell cycle arrest in human HepG2 cells assessed as accumulation at G2/M phase at 1 uM measured after 48 hrs by propidium iodide staining based flow cytometry analysis (reference value: 9.27%); format: functional
HepG2 [22] = test: Cell cycle arrest in human HepG2 cells assessed as accumulation at G2/M phase at 5 uM measured after 48 hrs by propidium iodide staining based flow cytometry analysis (reference value: 9.27%); format: functional
HepG2 [23] = test: Induction of apoptosis in human HepG2 cells assessed as necrotic cells at 0.5 uM measured after 48 hrs by AnnexinV-FITC/propidium iodide staining based flow cytometry (reference value: 1.05%); format: functional
HepG2 [24] = test: Induction of apoptosis in human HepG2 cells assessed as necrotic cells at 1 uM measured after 48 hrs by AnnexinV-FITC/propidium iodide staining based flow cytometry (reference value: 1.05%); format: functional
HepG2 [25] = test: Induction of apoptosis in human HepG2 cells assessed as necrotic cells at 5 uM measured after 48 hrs by AnnexinV-FITC/propidium iodide staining based flow cytometry (reference value: 1.05%); format: functional
HepG2 [26] = test: Induction of apoptosis in human HepG2 cells assessed as late apoptotic cells at 0.5 uM measured after 48 hrs by AnnexinV-FITC/propidium iodide staining based flow cytometry (reference value: 5.93%); format: functional
HepG2 [27] = test: Induction of apoptosis in human HepG2 cells assessed as late apoptotic cells at 1 uM measured after 48 hrs by AnnexinV-FITC/propidium iodide staining based flow cytometry (reference value: 5.93%); format: functional
HepG2 [28] = test: Induction of apoptosis in human HepG2 cells assessed as late apoptotic cells at 5 uM measured after 48 hrs by AnnexinV-FITC/propidium iodide staining based flow cytometry (reference value: 5.93%); format: functional
HepG2 [29] = test: Induction of apoptosis in human HepG2 cells assessed as viable cells at 0.5 uM measured after 48 hrs by AnnexinV-FITC/propidium iodide staining based flow cytometry (reference value: 82.2%); format: functional; settings: read-out: Activity
HepG2 [30] = test: Induction of apoptosis in human HepG2 cells assessed as viable cells at 1 uM measured after 48 hrs by AnnexinV-FITC/propidium iodide staining based flow cytometry (reference value: 82.2%); format: functional; settings: read-out: Activity
HepG2 [31] = test: Induction of apoptosis in human HepG2 cells assessed as viable cells at 5 uM measured after 48 hrs by AnnexinV-FITC/propidium iodide staining based flow cytometry (reference value: 82.2%); format: functional; settings: read-out: Activity
HepG2 [32] = test: Induction of apoptosis in human HepG2 cells assessed as early apoptotic cells at 0.5 uM measured after 48 hrs by AnnexinV-FITC/propidium iodide staining based flow cytometry (reference value: 10.8%); format: functional
HepG2 [33] = test: Induction of apoptosis in human HepG2 cells assessed as early apoptotic cells at 1 uM measured after 48 hrs by AnnexinV-FITC/propidium iodide staining based flow cytometry (reference value: 10.8%); format: functional
HepG2 [34] = test: Induction of apoptosis in human HepG2 cells assessed as early apoptotic cells at 5 uM measured after 48 hrs by AnnexinV-FITC/propidium iodide staining based flow cytometry (reference value: 10.8%); format: functional
HepG2 [35] = test: Inhibition of colony formation in human HepG2 cells at 1 uM incubated for 24 hrs by crystal violet staining based analysis; format: functional, cell-based
HepG2 [36] = test: Disruption of microtubule network in human HepG2 cells incubated for 12 hrs by DAPI staining based immunofluorescence analysis; format: functional, cell-based; settings: dose 0.1-1 µM
HeLa [37] = test: cells; settings: Homo sapiens, 48 h
Description: Antiproliferative activity against human HeLa cells assessed as reduction in cell viability measured after 48 hrs by MTT assay

MCF7 [38] = test: cells; settings: Homo sapiens, MCF7, 48 h
Description: Antiproliferative activity against human MCF7 cells assessed as reduction in cell viability measured after 48 hrs by MTT assay

IC50 (B16-F10 [1]): 563 nM | IC50 (HepG2 [2]): 261 nM | IC50 [12]: 12400 nM | IC50 (HeLa [37]): 2050 nM | IC50 (MCF7 [38]): 609 nM
SMILES: COc1ccc(N(C)c2cccc3ncccc23)cc1
Activity (B16-F10 [3]): Dose-Dependent Effect | Activity (HepG2 [4]): Dose-Dependent Effect | Activity (HeLa [5]): Dose-Dependent Effect | Activity (MCF7 [6]): Dose-Dependent Effect | Activity (B16-F10 [7]): Tde | Activity (HepG2 [8]): Tde | Activity (HeLa [9]): Tde | Activity (MCF7 [10]): Tde | inhibition (HepG2 [11]): Dose-Dependent Effect | inhibition (Sus scrofa): Dose-Dependent Effect | Activity (HepG2 [13]): Dose-Dependent Effect | Activity (HepG2 [14]): 42.3% | Activity (HepG2 [15]): 32.66% | Activity (HepG2 [16]): 38% | Activity (HepG2 [17]): 38.55% | Activity (HepG2 [18]): 38.01% | Activity (HepG2 [19]): 30.88% | Activity (HepG2 [20]): 17.46% | Activity (HepG2 [21]): 27.32% | Activity (HepG2 [22]): 32.13% | Activity (HepG2 [23]): 2.58% | Activity (HepG2 [24]): 1.38% | Activity (HepG2 [25]): 2.5% | Activity (HepG2 [26]): 23.3% | Activity (HepG2 [27]): 28.5% | Activity (HepG2 [28]): 39.4% | viability at 0.5 µM (HepG2 [29]): 25.2% | viability at 1 µM (HepG2 [30]): 10.6% | viability at 5 µM (HepG2 [31]): 19.3% | Activity (HepG2 [32]): 48.9% | Activity (HepG2 [33]): 59.6% | Activity (HepG2 [34]): 38.8% | inhibition (HepG2 [35]): Active | Activity (HepG2 [36]): Active
